Laboratory results taken from PubChem BioAssay (NCI).
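Five compound concentrations were applied to cells in 96-well plates for 48 hours; endpoints were derived by simple linear interpolation of the resulting dose-response curve. Here, GI50 denotes the concentration required for 50% inhibition of growth. TGI is the concentration that stops growth completely.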

Columns and labels:
Experiment in all cases: growth of human tumour cells (NCI), 48 h
BT-549 breast = test system: BT-549 breast
COLO 205 colon = test system: COLO 205 colon
DU-145 prostate = test system: DU-145 prostate
EKVX NSCLC = test system: EKVX NSCLC
HCT-116 colon = test system: HCT-116 colon
HT29 colon = test system: HT29 colon
K-562 leukemia = test system: K-562 leukemia
KM12 colon = test system: KM12 colon
M14 melanoma = test system: M14 melanoma
MCF7 breast = test system: MCF7 breast
OVCAR-4 ovarian = test system: OVCAR-4 ovarian
RXF 393 renal = test system: RXF 393 renal
SF-295 CNS = test system: SF-295 CNS
SK-MEL-2 melanoma = test system: SK-MEL-2 melanoma
SK-MEL-5 melanoma = test system: SK-MEL-5 melanoma
TK-10 renal = test system: TK-10 renal
UACC-62 melanoma = test system: UACC-62 melanoma
UO-31 renal = test system: UO-31 renal

Compound	TGI (BT-549 breast)	TGI (COLO 205 colon)	TGI (DU-145 prostate)	TGI (EKVX NSCLC)	TGI (HCT-116 colon)	TGI (HT29 colon)	TGI (K-562 leukemia)	TGI (KM12 colon)	TGI (M14 melanoma)	TGI (MCF7 breast)	TGI (OVCAR-4 ovarian)	TGI (RXF 393 renal)	TGI (SF-295 CNS)	TGI (SK-MEL-2 melanoma)	TGI (SK-MEL-5 melanoma)	TGI (TK-10 renal)	TGI (UACC-62 melanoma)	TGI (UO-31 renal)	GI50 (DU-145 prostate)	GI50 (HCT-116 colon)
O=c1oc2ccccc2cc1-c1csc(Nc2ccc(F)cc2)n1	17.4 µM	14.9 µM	11.3 µM	8.63 µM	5.65 µM	14.2 µM	20.6 µM	18.4 µM	13.6 µM	15.5 µM	> 36 µM	28.2 µM	10.7 µM	39.2 µM	23.9 µM	8.21 µM	43.9 µM	6.42 µM	–	–
O=S(=O)(SC1=NCCN1)c1ccc2ccccc2c1	83.9 µM	37.7 µM	> 100 µM	> 100 µM	62.4 µM	40 µM	55 µM	44.1 µM	63.6 µM	> 100 µM	> 100 µM	> 100 µM	65.8 µM	80 µM	64.5 µM	> 100 µM	> 100 µM	> 100 µM	–	–
CCCCCCCCCCCCN(CC(O)C(O)C(OC1OC(CO)C(O)C(O)C1O)C(O)CO)C(=O)CCCCCCCCCCC (stereo not drawn)	40.4 µM	35.3 µM	35.8 µM	34.4 µM	36.4 µM	34.4 µM	35.5 µM	36.7 µM	39.7 µM	> 100 µM	44.5 µM	67.5 µM	37.3 µM	58.8 µM	31.3 µM	29.9 µM	38.8 µM	45.8 µM	–	–
Clc1ccccc1-c1nc2ccc(C34CC5CC(CC(C5)C3)C4)cc2[nH]1	43.5 µM	> 100 µM	> 100 µM	> 100 µM	> 100 µM	37.9 µM	> 100 µM	> 100 µM	70.7 µM	23.4 µM	> 100 µM	20.8 µM	32 µM	40.8 µM	> 100 µM	64.6 µM	27.1 µM	28.1 µM	–	–
OC1(c2ccc(Cl)cc2)C(N2CCCC2)c2ccccc2C2=NCCN21 (stereo not drawn)	65.2 µM	23.9 µM	> 100 µM	> 100 µM	46.6 µM	32.4 µM	47.5 µM	60 µM	31.7 µM	94.8 µM	87.9 µM	91.9 µM	30.9 µM	45 µM	28.4 µM	40 µM	41.3 µM	> 100 µM	–	–
COC(=O)C1=C(O)C(C(=O)OC)[C@]2(O)[C@H](C(=O)OC)[C@H]1C[C@@H](c1ccc(Cl)cc1)[C@H]2C(=O)OC (stereo partly drawn)	38.9 µM	25.1 µM	30.4 µM	30.6 µM	17.3 µM	32 µM	> 100 µM	46.6 µM	19.5 µM	24.1 µM	> 100 µM	19.1 µM	20.6 µM	6.51 µM	20.5 µM	33.5 µM	24.9 µM	21.4 µM	–	–
CCC/C=C/c1cc2c(cc1O)CC[C@@H]1[C@@H]2CC[C@]2(C)[C@@H](O)CC[C@@H]12	36.1 µM	36.5 µM	34.2 µM	41.2 µM	31.6 µM	32.9 µM	45.5 µM	32.6 µM	37.3 µM	52.6 µM	44.9 µM	33.2 µM	34.9 µM	32.1 µM	30.2 µM	38 µM	29 µM	31 µM	18.7 µM	17.2 µM
COC(=O)CC(c1cn(S(=O)(=O)c2ccc(C)cc2)c2ccccc12)C1C[C@@H](C(=O)OC)N(C(=O)OC(C)(C)C)C1=O (stereo partly drawn)	> 100 µM	86.6 µM	> 100 µM	> 100 µM	> 100 µM	> 100 µM	> 100 µM	> 100 µM	> 100 µM	> 100 µM	> 100 µM	> 100 µM	> 100 µM	> 100 µM	> 100 µM	> 100 µM	> 100 µM	> 100 µM	–	–
Cc1cc2cc3c(cc2c(-c2ccc([N+](=O)[O-])cc2)n1)OCO3	73.7 µM	> 100 µM	> 100 µM	> 100 µM	> 100 µM	> 100 µM	> 100 µM	> 100 µM	> 100 µM	> 100 µM	56.8 µM	> 100 µM	> 100 µM	> 100 µM	> 100 µM	> 100 µM	67.2 µM	> 100 µM	–	–
Nc1nc(I)nc2c1ncn2C1OC(COS(N)(=O)=O)C(O)C1O (stereo not drawn)	0.103 µM	0.0167 µM	< 0.0193 µM	0.0573 µM	0.0534 µM	0.0353 µM	0.37 µM	0.0297 µM	0.028 µM	0.207 µM	< 0.0158 µM	0.0441 µM	0.168 µM	0.0107 µM	< 0.0113 µM	0.071 µM	0.0606 µM	0.0653 µM	–	–
COC(=O)c1cc(C)ccc1C1CN=NC12Cc1ccc(C)cc1C2=O (stereo not drawn)	> 100 µM	29.3 µM	> 100 µM	> 100 µM	> 100 µM	> 100 µM	> 100 µM	> 100 µM	> 100 µM	85.8 µM	> 100 µM	> 100 µM	> 100 µM	> 100 µM	31.9 µM	> 100 µM	> 100 µM	> 100 µM	–	–
Cc1nc(-c2cc3c(ccc4ccccc43)oc2=O)cs1	57.8 µM	> 100 µM	> 100 µM	> 100 µM	> 100 µM	> 100 µM	> 100 µM	> 100 µM	> 100 µM	> 100 µM	> 100 µM	> 100 µM	> 100 µM	> 100 µM	> 100 µM	> 100 µM	> 100 µM	> 100 µM	–	–
